The subject of this experiment is Hepatitis B virus. Kind of experiment: Antiviral activity against HBV infected in human HepDES19 cells assessed as reduction in HBV cccDNA production by measuring inhibition of HBeAg secretion incubated for 5 days by ELISA. To be noted: HepDES19, 120 h. Type of experiment: functional, organism-based. In general terms: An ELISA detects its analyte on a solid surface through an enzyme-linked reagent.
In the case of `CC1(C(=O)O)NC(c2ccc(Br)cc2)=Nc2c(Cl)cccc21` (stereo unspecified), the IC50 is 130 nM.
With `NC(=O)C1NC(c2cccc(Br)c2)=Nc2cc(C(F)(F)F)ccc21` (stereo unspecified), the IC50 is 260 nM.
Under `COc1ccc2c(c1)CCN(C1=Nc3c(Cl)cccc3C(C)N1)C2=O` (stereo unspecified) stands 27 nM; under `O=C(O)C1NC(c2ccc(N3CCCC3)nc2)=Nc2c(Cl)cccc21` (stereo unspecified), 50 nM.
As for `COC(=O)C1NC(c2ccc(Br)cc2)=Nc2c(Cl)cccc21` (stereo unspecified), the IC50 came out at 330 nM.
The figure for `NC(=O)C1NC(c2ccc(Br)cc2)=Nc2c(Cl)cccc21` (stereo unspecified) is 70 nM.

Usually IC50 stands for the concentration that inhibits the measured activity by half.

Values taken from ChEMBL document CHEMBL4808206, “Novel Substituted 3,4-Dihydroquinazoline Derivatives for Treating Hepatitis B Virus Infection” (ACS Med Chem Lett, 2021).
